Test results from patent US20210386365A1, “BIOMARKERS OF NEUROPATHIC PAIN” (Children`s Medical Center Corporation, priority 2018, published 2021).

Test system: SNI mice
Assay: EEG/EMG sleep analysis (NREMS fragmentation by brief awakenings) in spared nerve injury mice treated with analgesic drugs
Assay type: in vivo
Details: for sleep fragmentation: mice with nerve injury, efficacy at doses active in patients with neuropathic pain
From the text: EEG/EMG implantation surgery: C57BL6/j mice were anesthetized with isoflurane gas (3% induction/2% maintenance) and placed in a stereotaxic apparatus (David Kopf Instruments, Tujunga, Calif.). […] Two flexible EMG electrodes(multistranded stainless steel wire; AS131, Cooner Wire, Chatsworth, Calif.) were inserted into the neck extensor muscles. All electrodes were previously soldered to a six-pin connector (MMX852-10-006-10-001000; Mill-Maz Mfg. Corp., Oyster Bay, N.Y.) and covered with epoxy glue to ensure insulation. The headmount was affixed to the animal's skull with dental acrylic cement, and the scalp wound was sutured closed behind the headmount. Mice were given meloxicam (5 mg/kg, i.p.) before they regained consciousness and then daily for 3 days and were housed singly after surgery.
EEG/EMG acquisition: Ten to fifteen days after EEG/EMG implantation, mice were transferred to individual sleep-recording cages (transparent cylindrical cage, 12″ diameter and 12″ height) in a sound-attenuated chamber with a 12:12 h light-dark cycle, ad libitum food and water, and connected to a tethered pre-amplifier (100× gain, 0.5 Hz high-pass filter for EEG, 10 Hz high-pass filter for EMG; Pinnacle Technology Inc., Lawrence, Kans., USA). The other end of the tether was plugged into a low-torque commutator (8204, Pinnacle Technology Inc., Lawrence, Kans., USA) for freely moving recordings. A data conditioning and acquisition system (DCAS, 8206) performed secondary amplification and filtering (low-pass filter: 100 Hz for EEG, 200 Hz for EMG). Mice habituated for 3-5 days to the recording setup before their baseline sleep-wake and sensory behaviors were measured.
Spared nerve injury (SNI): surgery was performed under 3% induction/2% maintenance with isoflurane on adult mice (8 to 12 weeks old). The tibial and common peroneal branches of the sciatic nerve were tightly ligated with a 5.0 silk suture and transected distally, while the sural nerve was left intact (Decosterd and Woolf, 2000). After injury, incision was sutured and mice were allowed to recover on heated pads before being returned to their homecage. The surgeon who performed the SNI was blinded to the genotype. This model causes permanent pain hypersensitivity. Sciatic nerve crush (SNcrush): surgery was performed under 3% induction/2% maintenance with isoflurane on adult mice (8 to 12 weeks old). The left sciatic nerve was exposed just below the sciatic notch under sterile conditions and then crushed using Dumont #5/45 forceps for 30 seconds under a dissection microscope. After the nerve injury, the incision wound was sutured and animals were allowed to recover on heated pads before being returned to their home cage. The surgeon who performed the SNcrush was blinded to the treatment. This model causes transient hypersensitivity before return to normal sensitivity. Sham control: surgery was performed under 3% induction/2% maintenance with isoflurane on adult mice (8 to 12 weeks old). The left sciatic nerve was exposed but left intact and the animals were allowed to recover on heated pads before being returned to their home cage.
EEG and EMG signals were digitized at a sampling rate of 400 Hz through Sirenia® Acquisition software (Pinnacle Technology Inc, Lawrence, Kans., USA) and converted to European Data Format (.EDF). Using SleepSign® for Animal (Kissei Comtec Co., Japan) software, EEG and EMG signals were digitally filtered (EEG, 0.5-100 Hz; EMG, 10-200 Hz) and scored semi-automatically using 10-s epochs, as wake, NREMS or REMS. This preliminary scoring was visually inspected by a trained experimenter, who was blinded to the experimental conditions, and corrected when appropriate. To evaluate sleep fragmentation, transient waking events occurring during NREMS were evaluated: these brief awakenings (BAs) were defined by a high-frequency low-amplitude EEG associated with an increase of EMG tone ranging from 2-15 s (Franken et al., 1991; Tobler et al., 1997). […]

Compound	average length of NREM (SNI mice, carbamazepine 5 mg/kg versus saline, FIGS. 8E-8G)	sleep fragmentation	total amount of sleep (SNI mice with and without GBP treatment, FIG. 8C)	latency on sleep (time from full wakefulness to sleep) (SNI mice with and without GBP treatment, FIG. 8D)	time after administration at which effects on NREMS length were the strongest (SNI mice, FIG. 8B)	sedation (SNI mice, gabapentin treatment)	average length of NREMS (SNI mice, gabapentin treatment, FIG. 8A)
NC(=O)N1c2ccccc2C=Cc2ccccc21 [carbamazepine]	restored the average length of NREM	dose-dependently normalize sleep fragmentation	–	–	–	–	–
NCC1(CC(=O)O)CCCCC1 [gabapentin]	–	dose-dependently normalize sleep fragmentation	not affected	slight increase	0 to 2 h	without causing sedation	restored the average length of NREMS
